Results taken from article PMC9656801, “Synthesis of Cyclotetrapeptides Analogues to Natural Products as Herbicides” (Molecules, 2022).
Where two headings read alike, the source gives them in different places. Non-standard residues stand in square brackets, D forms with d. Residues, ends and D or L forms follow the SMILES beside them. NMeF = CN[C@@H](Cc1ccccc1)C(=O)O; dNMeF = CN[C@H](Cc1ccccc1)C(=O)O; NMeA = CN[C@@H](C)C(=O)O; Sar = CNCC(=O)O

What was measured:
[1] = system: Lolium multiflorum (Ryegrass) seeds; type: in vivo; settings: agar germination
[2] = amide bond, 12-membered ring
[3] = system: Lolium multiflorum (Ryegrass) seeds; assay: whole plant or invertebrate; type: in vivo; settings: agar germination; for Radicle growth inhibition (%): 67 µg/mL, 20 °C, evaluated after 12 days, three replicates of ten seeds, relative to DMSO negative control
Experimental: The herbicidal activity of cyclotetrapeptides 16–25, 27 and the linear precursors 4–8, 10, 12–15 were evaluated for their influence on germination, leaf development and radicle length growth of ryegrass seeds at 67 μg/mL using germination in agar methodology. DMSO was used as negative control and the herbicide S-metolachlor as positive control. […] The results were expressed as % of radicle growth inhibition, calculated as the percentage between the treatment with each compound and radicle length growth for the negative control (DMSO), as shown in Figure 3.
The experiments to determine the herbicidal activity of the cyclopeptide compounds were carried out on Lolium multiflorum (Raygrass) plants. Germination, root length and leaf development were evaluated, compared to a control without herbicide, a negative control (100 μL DMSO in 15 mL agar, used as solvent) and an herbicide control (1/8 of the commercial dose of the herbicide S-metolachlor).
Serial experiments were conducted using the Agar germination methodology, where the tested compounds and the respective controls were placed in glass Petri dishes (6 cm diameter) in three replicates per treatment. Ten ryegrass seeds were germinated in a growth chamber (20 °C, day/night temperature). The seeds were previously sterilized by immersing them in 70% alcohol for 10 s. When distributed in the Petri dish on the agar, the seeds were placed in such a way as to ensure that they remained submerged in the solution.
Agar–water solution was prepared at 0.3%, 3 g of agar was placed in 1 liter of deionized water, and the solution was autoclaved at 100 °C for 45 min. Once the agar medium had cooled to approximately 60 °C, the solutions were prepared.
The negative control–DMSO control was prepared by adding 100 μL of DMSO per plate in 15 mL of agar and then the seeds were distributed, as mentioned above. A control without DMSO was also carried out to check that the product was not altering the correct development of the ryegrass seeds. For this test, 15 ml of agar were placed in each Petri dish and, before it solidified, the seeds of the species evaluated were placed on top. The herbicide treatment, positive control–Control S-Metolachlor (960 g/L), was carried out for a conversion of 1/8 of the dose of 1 L/ha of commercial product. For this purpose, a stock solution of S-Metolachlor was prepared by placing 0.28 mL of the herbicide in a volumetric flask and topping up to 1000 mL. A total of 25 mL of this stock solution were taken, placed in a volumetric flask and brought to 200 mL, thus, generating the 1/8x solution of S-Metolachlor. A volume of 3 mL of 1/8x herbicide solution was mixed with 45 mL of the agar solution to bring 16 mL into each Petri dish. This ensured that there was 1 mL of 1/8x S-Metolachlor solution per plate: 0.28 μL of herbicide solution. Seeds were arranged in the same way. Using the same method, the agar media corresponding to each plate (15 mL) was mixed with the cyclopeptides dissolved in 100 μL of DMSO.
Germination, root length and leaf development were evaluated 12 days after preparation. The variables of germinated plants and plants with developed leaves of the total number of plants placed to germinate were analyzed by fitting a generalized linear model, since they presented a binomial distribution.
Glinmix procedure of the SAS statistical package. Based on the model and for the comparison of the treatments with the different controls, the contrasts of interest were carried out. The effect of the treatments on the root length variable was studied by comparing means using a Tukey test (p-value < 0.05) in INFOSTAT.
5. Procedure for evaluation of phytotoxic activity
Experiments for determining the herbicidal activity of cyclopeptide compounds were carried out on Lolium multiflorum (Ray grass) plants. Germination, root length, and leaf development were evaluated compared to a control without herbicide, a negative […]

HepG2 cells = settings: cited from earlier work
[4] = system: Lolium multiflorum (Ryegrass) seeds; settings: 67 μg/mL; cited from earlier work
cyanobacteria = settings: cited from earlier work
[5] = 11 µM, 12 days, relative to DMSO control
[6] = 6 µM, 12 days, relative to DMSO control

Compound: CN[C@H](Cc1ccccc1)C(=O)N[C@@H](C)C(=O)N[C@@H](Cc1ccccc1)C(=O)N(C)CC(=O)O [Compound 14, N-Me-D-Phe-Ala-Phe-N-MeGly-OH] (H-[dNMeF]AF[Sar]-OH)
- Radicle growth inhibition (%) ([1]; 67 µM as printed): 53%

Compound: Cyclo-[N-MeAla-Leu-Phe-Gly]
- ring closure, isolated yield [2]: 48%

Compound: C[C@@H]1NC(=O)[C@@H](Cc2ccccc2)N(C)C(=O)CN(C)C(=O)[C@H](Cc2ccccc2)NC1=O [Compound 26, Cyclo-[N-Me-D-Phe-Ala-Phe-N-MeGly]] (cyclo([dNMeF]AF[Sar]))
- Radicle growth inhibition (%) ([1]; 7 µM, 12 days, relative to DMSO control): 45%
- Radicle growth inhibition (%) ([1]; 45 µg/mL, 12 days, relative to DMSO control): 67%

Compound: CC(C)C[C@@H]1NC(=O)[C@H](C)NC(=O)CNC(=O)[C@@H](Cc2ccccc2)N(C)C1=O [Cyclo-[Ala-Leu-N-Me-D-Phe-Gly]]
- ring closure, isolated yield ([2]; from H-Ala-Leu-dMePhe-Gly-OH): 66%

Compound: Cyclo-[N-MeAla-Leu-N-MePhe-Gly]
- ring closure, isolated yield [2]: 47%

Compound: Cyclo-[Ala-Leu-D-Phe-Gly] (head to tail) [Compound 16]
- Radicle growth inhibition (%) [3]: inactive

Compound: CC(C)C[C@H](NC(=O)[C@H](C)N)C(=O)N(C)[C@@H](Cc1ccccc1)C(=O)N(C)CC(=O)O [Compound 10, NH2-Ala-Leu-N-MePhe-N-MeGly-OH] (H-AL[NMeF][Sar]-OH)
- Radicle growth inhibition (%) [3]: greater than 85%
- Radicle growth inhibition (%) [1, 5]: 15%

Compound: CC(C)C[C@@H]1NC(=O)[C@H](C)N(C)C(=O)CN(C)C(=O)[C@H](Cc2ccccc2)NC1=O [Compound 23, Cyclo-[N-MeAla-Leu-Phe-N-MeGly]] (cyclo([NMeA]LF[Sar]))
- Radicle growth inhibition (%) [3]: 16%

Compound: Cyclo-[Phe-N-MeGly-Cys(Bn)-N-MeGly]
- ring closure, isolated yield [2]: 54%

Compound: CC(C)C[C@@H]1NC(=O)[C@H](C)NC(=O)CN(C)C(=O)[C@H](Cc2ccccc2)N(C)C1=O [Compound 22, Cyclo-[Ala-Leu-N-MePhe-N-MeGly]] (cyclo(AL[NMeF][Sar]))
- Radicle growth inhibition (%) [3]: 66%

Compound: CCc1cccc(C)c1N(C(=O)CCl)[C@@H](C)COC [S-metolachlor, reference compound]
- inhibition at 2.1 µg/mL ([3]; Lolium multiflorum, 288 h, positive control at 2.1 µg/mL (1/8 of the commercial dose), 12 days, read-out: Radicle growth inhibition (%)): 100%

Compound: CC(C)C[C@@H]1NC(=O)[C@H](C)NC(=O)CNC(=O)[C@@H](Cc2ccccc2)NC1=O [Cyclo-[Ala-Leu-D-Phe-Gly]]
- ring closure, isolated yield ([2]; from H-Ala-Leu-dPhe-Gly-OH): 5%

Compound: Cyclo-[N-MeAla-Phe-N-MePhe-Gly]
- ring closure, isolated yield [2]: 86%

Compound: CC(C)C[C@@H]1NC(=O)[C@H](C)N(C)C(=O)CN(C)C(=O)[C@H](Cc2ccccc2)NC1=O [Cyclo-[N-MeAla-Leu-Phe-N-MeGly]]
- ring closure, isolated yield ([2]; from H-MeAla-Leu-Phe-MeGly-OH): 38%

Compound: Cyclo-[N-MeAla-Leu-D-Phe-Gly]
- ring closure, isolated yield [2]: 67%

Compound: CC(C)C[C@@H]1NC(=O)[C@H](C)NC(=O)CN(C)C(=O)[C@H](Cc2ccccc2)NC1=O [Cyclo-[Ala-Leu-Phe-N-MeGly]]
- ring closure, isolated yield ([2]; from H-Ala-Leu-Phe-MeGly-OH): 40%

Compound: Cyclo-[N-MeAla-Leu-D-Phe-Gly] (head to tail) [Compound 20]
- Radicle growth inhibition (%) [3]: 74%
- Radicle growth inhibition (%) [1, 6]: 32%

Compound: CC(C)C[C@H](NC(=O)[C@H](C)N)C(=O)N[C@@H](Cc1ccccc1)C(=O)N(C)CC(=O)O [Compound 6, NH2-Ala-Leu-Phe-NMeGly-OH] (H-ALF[Sar]-OH)
- Radicle growth inhibition (%) [3]: 92% and greater than 85%

Compound: versicotide D
- cytotoxicity on HepG2 cells (HepG2 cells): low cytotoxicity
- radicle growth inhibition [4]: 74%
- inhibition of cyanobacteria population (cyanobacteria): ability to inhibit cyanobacteria population

Compound: Cyclo-[N-MeAla-Leu-Phe-Gly] (head to tail) [Compound 17]
- Radicle growth inhibition (%) [1, 6]: 10%

Compound: CC(C)C[C@@H]1NC(=O)[C@H](C)NC(=O)CN(C)C(=O)[C@@H](Cc2ccccc2)NC1=O [Cyclo [Ala-Leu-D-Phe-N-MeGly]]
- ring closure, isolated yield ([2]; from H-Ala-Leu-dPhe-MeGly-OH): 76%

Compound: C[C@H]1C(=O)N[C@@H](Cc2ccccc2)C(=O)N(C)[C@@H](Cc2ccccc2)C(=O)NCC(=O)N1C [Compound 25, Cyclo-[N-MeAla-Phe-N-MePhe-Gly]] (cyclo([NMeA]F[NMeF]G))
- Radicle growth inhibition (%) [3]: 96% and greater than 85%
- Radicle growth inhibition (%) ([1]; 4 µM, 12 days, relative to DMSO control): 41%

Compound: Cyclo-[N-Me-D-Phe-Ala-Phe-N-MeGly]
- ring closure, isolated yield [2]: 17%

Compound: Cyclo-[Ala-Leu-N-Me-D-Phe-Gly] (head to tail) [Compound 19]
- Radicle growth inhibition (%) [3]: 87% and greater than 85%
- Radicle growth inhibition (%) ([1]; 9 µM, 12 days, relative to DMSO control): 53%

Compound: CC(C)C[C@@H]1NC(=O)[C@H](C)NC(=O)CN(C)C(=O)[C@H](Cc2ccccc2)N(C)C1=O [Cyclo-[Ala-Leu-N-MePhe-N-MeGly]]
- ring closure, isolated yield ([2]; from H-Ala-Leu-MePhe-MeGly-OH): 33%

Compound: CC(C)C[C@H](NC(=O)[C@H](C)N)C(=O)N(C)[C@H](Cc1ccccc1)C(=O)NCC(=O)O [Compound 7, NH2-Ala-Leu-N-Me-D-Phe-Gly-OH] (H-AL[dNMeF]G-OH)
- Radicle growth inhibition (%) [3]: 94% and greater than 85%
- Radicle growth inhibition (%) [1, 5]: 48%

Compound: CC(C)C[C@@H]1NC(=O)[C@H](C)N(C)C(=O)CNC(=O)[C@H](Cc2ccccc2)N(C)C1=O [Compound 24, Cyclo-[N-MeAla-Leu-N-MePhe-Gly]] (cyclo([NMeA]L[NMeF]G))
- Radicle growth inhibition (%) [3]: 81%
- Radicle growth inhibition (%) ([1]; 10 µM, 12 days, relative to DMSO control): 62%

Compound: CN[C@@H](C)C(=O)N[C@@H](Cc1ccccc1)C(=O)N(C)[C@@H](Cc1ccccc1)C(=O)NCC(=O)O [Compound 13, N-MeAla-Phe-N-MePhe-Gly-OH] (H-[NMeA]F[NMeF]G-OH)
- Radicle growth inhibition (%) [3]: greater than 85%
- Radicle growth inhibition (%) ([1]; 5 µM, 12 days, relative to DMSO control): 38%
